pIC50: −log10 of the molar value. Read-outs that look alike come from different tables or passages of the source.
What was measured:
[1] = molecular target: T1, SHV-5 β-lactamase (Klebsiella pneumoniae, UniProt P0A3M1); test: β-lactamase enzyme inhibition, SHV-5; type: biochemical
T1 construct: made in house; host or cells: E. coli BL21(DE3)
Procedure, shortened: (§1)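 Native untagged β-lactamases were expressed in E. coli BL21(DE3) and purified. Enzyme was preincubated with inhibitor for 15 min at 37° C., then substrate hydrolysis was followed: nitrocefin 100 μM for p99 AmpC and OXA-1 (486 nm, 10 min), imipenem for KPC-2 (300 nm), cefotaxime for SHV-5 (260 nm). IC50 was derived from initial rates relative to uninhibited controls.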

[2] = test system: K. pneumoniae A-1797 expressing KPC-2 and VIM-4; test: broth microdilution MIC, K. pneumoniae KPC-2 and VIM-4; type: cell-based; conditions: Fixed Mero (meropenem) 4 μg/mL
Procedure, shortened: (§2)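 CAMHB; strains pre-grown 3-5 h. Test cpd 2-fold dilutions, 32→0.25 μg/mL final, + beta-lactam static 4 μg/mL. CLSI inoculation, 16-20 h at 37° C, visual MIC.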

[3] = test system: E. coli ESBL4 expressing CTX-M-15; test: broth microdilution MIC, E. coli CTX-M-15; type: cell-based; conditions: Fixed CAZ (ceftazidime) 4 μg/mL
Procedure, shortened: as §2

[4] = molecular target: T2, OXA-1 β-lactamase (Escherichia coli, UniProt P13661); test: β-lactamase enzyme inhibition, OXA-1; type: biochemical; conditions: Nitrocefin 100 μM, 486 nm; 15 min at 37° C. preincubation; read-out: IC50 OXA-1 (Class D)
T2 construct: made in house; host or cells: E. coli BL21(DE3)
T2 sequence (P13661 26-276): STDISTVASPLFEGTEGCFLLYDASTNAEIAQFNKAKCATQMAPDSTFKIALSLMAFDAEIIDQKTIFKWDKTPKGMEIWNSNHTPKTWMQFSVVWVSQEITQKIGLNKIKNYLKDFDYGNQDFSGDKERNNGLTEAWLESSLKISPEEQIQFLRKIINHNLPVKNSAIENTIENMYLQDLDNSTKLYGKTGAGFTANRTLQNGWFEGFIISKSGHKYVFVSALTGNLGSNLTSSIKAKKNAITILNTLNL
Procedure, shortened: as §1

[5] = molecular target: T3, VIM-2 metallo β-lactamase (Pseudomonas aeruginosa, UniProt Q9K2N0); test: β-lactamase enzyme inhibition, VIM-2; type: biochemical; conditions: Nitrocefin 100 μM, 486 nm; 15 min at 37° C. preincubation; read-out: IC50 VIM-2 (Class B)
T3 construct: made in house; host or cells: E. coli BL21(DE3)
Procedure, shortened: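 VIM-2 purified by Q sepharose anion exchange (50 mM Hepes pH 7.5, 0-600 mM NaCl gradient, two runs, >90% purity). Enzyme preincubated with inhibitor 15 min at 37° C; nitrocefin 100 μM final, absorbance at 486 nm followed 10 min. IC50 from initial hydrolysis rates versus inhibitor-free controls.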

[6] = molecular target: T4, KPC-2 β-lactamase (Klebsiella pneumoniae, UniProt Q9F663); test: β-lactamase enzyme inhibition, KPC-2; type: biochemical
T4 construct: made in house; host or cells: E. coli BL21(DE3)
T4 sequence (Q9F663 25-293, looked up): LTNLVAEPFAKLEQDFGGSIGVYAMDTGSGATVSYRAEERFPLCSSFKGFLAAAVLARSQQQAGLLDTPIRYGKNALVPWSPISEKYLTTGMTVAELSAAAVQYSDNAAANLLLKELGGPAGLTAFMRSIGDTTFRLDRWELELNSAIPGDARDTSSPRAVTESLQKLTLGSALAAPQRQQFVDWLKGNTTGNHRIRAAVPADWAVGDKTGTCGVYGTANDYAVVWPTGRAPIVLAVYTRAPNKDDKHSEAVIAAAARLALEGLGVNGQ
Procedure, shortened: as §1

[7] = test system: K. pneumoniae 156319 expressing KPC-3; test: broth microdilution MIC, K. pneumoniae KPC-3; type: cell-based; conditions: Fixed Mero (meropenem) 4 μg/mL
Procedure, shortened: as §2

[8] = test system: P. aeruginosa Ps296 expressing VIM-2; test: broth microdilution MIC, P. aeruginosa VIM-2; type: cell-based; conditions: Fixed Mero (meropenem) 4 μg/mL
Text: (§3) To determine the ability of test compounds to potentiate the inhibition of the growth of bacterial strains that produce beta-lactamase enzymes, classic cell based broth microdilution MIC assays were employed. Six bacteria strains producing beta-lactamase enzymes were used: E. coli expressing the Class A Extended Spectrum Beta-Lactamase (ESBL) CTX-M-15, E. cloacae expressing the Class C P99, K. pneumoniae expressing the Class A carbapenemase KPC-3, P. aeruginosa expressing the Class B carbapenemase VIM-2, K pneumoniae expressing the class A carbapenemase KPC-2 and the class B carbapenemase VIM-4, and S. aureus producing the Class A penicillinase PC-1. The assay was conducted in Cation Adjusted Mueller Hinton Broth (CAMHB, BD #212322, BD Diagnostic Systems, Sparks, Md.). Bacteria strains were grown for 3-5 hours in CAMBH broth. Test compounds were added to a microtiter plate in 2-fold serial dilutions in CAMHB in a final concentration range of 32 μg/mL to 0.25 μg/ml. An overlay of CAMHB containing a Beta-lactam was added to the compounds at a final static concentration of 4 μg/ml. […] In addition to the titration of test compounds the MICs of a panel of control beta-lactams is also tested to ensure the strains are behaving consistently from test to test. Once the test compound and antibiotics are added the plates can be inoculated according to CLSI broth microdilution method. After inoculation the plates are incubated for 16-20 hours at 37° C., then the Minimal Inhibitory Concentration (MIC) of the test compound is determined visually.
(§4) Using the methodology described above, examples of the current invention were evaluated for their ability to inhibit the growth of β-lactamase-producing bacteria in the presence of a β-lactam antibiotic.
(§5) Representative results are shown in Table 4 where A represents an MIC of the fixed β-lactam antibiotic in the presence of >32 µg/mL of a β-lactamase inhibitor of exemplary compounds, B represents the MIC in the presence of between 8 and 32 µg/mL of a β-lactamase inhibitor of exemplary compounds, and C represents the MIC in the presence of ≤4 µg/mL of a β-lactamase inhibitor of exemplary compounds. NT=Not Tested.

[9] = test system: E. cloacae 144200 expressing Class C P99 AmpC; test: broth microdilution MIC, E. cloacae P99; type: cell-based; conditions: Fixed CAZ (ceftazidime) 4 μg/mL
Procedure, shortened: as §2

[10] = test system: S. aureus MSSA-7 producing penicillinase PC-1; test: broth microdilution MIC, S. aureus PC-1; type: cell-based; conditions: Fixed Pip (piperacillin) 4 μg/mL
Text: as §3, §4, §5

[11] = molecular target: T5, p99 AmpC β-lactamase (Enterobacter cloacae, UniProt P05364); test: β-lactamase enzyme inhibition, p99 AmpC; type: biochemical
T5 construct: made in house; host or cells: E. coli BL21(DE3)
T5 sequence (P05364 21-381): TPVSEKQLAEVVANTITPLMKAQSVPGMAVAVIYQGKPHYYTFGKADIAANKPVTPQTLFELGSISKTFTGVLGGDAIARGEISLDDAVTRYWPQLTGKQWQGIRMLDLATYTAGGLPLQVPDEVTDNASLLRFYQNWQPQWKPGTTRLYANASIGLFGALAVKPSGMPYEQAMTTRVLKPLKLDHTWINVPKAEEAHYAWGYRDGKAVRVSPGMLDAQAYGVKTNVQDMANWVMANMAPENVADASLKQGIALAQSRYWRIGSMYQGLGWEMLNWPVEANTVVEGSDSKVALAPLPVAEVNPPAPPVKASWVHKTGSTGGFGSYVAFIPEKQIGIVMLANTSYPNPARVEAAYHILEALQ
Procedure, shortened: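 Native untagged E. cloacae p99 AmpC was expressed in E. coli BL21(DE3) and purified by cation exchange and gel filtration. Enzyme was preincubated with inhibitor at 37°C for 15 min.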

[12] = imipenem substrate, 300 nm, 15 min at 37° C. preincubation, read-out: IC50 KPC-2 (Class A)

T1 sequence (P0A3M1 22-286): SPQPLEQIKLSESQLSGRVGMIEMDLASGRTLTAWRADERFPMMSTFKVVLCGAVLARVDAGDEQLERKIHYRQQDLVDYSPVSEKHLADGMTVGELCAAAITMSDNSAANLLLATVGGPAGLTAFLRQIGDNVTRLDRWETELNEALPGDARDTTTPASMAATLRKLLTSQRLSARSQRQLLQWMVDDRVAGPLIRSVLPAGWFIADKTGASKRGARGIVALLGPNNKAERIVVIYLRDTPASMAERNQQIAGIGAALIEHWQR

SMILES	pIC50 [1]	MIC of exemplary compounds in presence of fixed β-lactams, K.P. A-1797 KPC-2 VIM-4 [2]	MIC of exemplary compounds in presence of fixed β-lactams, E. coli ESBL4 CTX-M-15 [3]	pIC50 [4]	pIC50 [5]	pIC50 [6, 12]	MIC of exemplary compounds in presence of fixed β-lactams, K.P. 156319 KPC-3 [7]	MIC of exemplary compounds in presence of fixed β-lactams, P. aerug. Ps296 VIM-2 [8]	MIC of exemplary compounds in presence of fixed β-lactams, E. cl. 144200 p99 AmpC [9]	MIC of exemplary compounds in presence of fixed β-lactams, S. aureus MSSA-7 PC-1 [10]	pIC50 [11]	pIC50 [6]
O=C(CCn1cccn1)N[C@H]1Cc2cccc(C(=O)O)c2OB1O [Example 28, (R)-2-Hydroxy-3-(3-pyrazol-1-yl-propionylamino)-3,4-dihydro-2H-benzo[e][1,2]oxaborinine-8-carboxylicacid]	> 7.00	B (B represents the MIC in the presence of between 8 and 32 g/mL of a β-lactamase inhibitor)	C (C represents the MIC in the presence of ≤4 g/mL of a β-lactamase inhibitor)	> 7.00	5.00 to 6.00	> 7.00	C (C represents the MIC in the presence of ≤4 g/mL of a β-lactamase inhibitor)	B (B represents the MIC in the presence of between 8 and 32 g/mL of a β-lactamase inhibitor)	C (C represents the MIC in the presence of ≤4 g/mL of a β-lactamase inhibitor)	C (C represents the MIC in the presence of ≤4 g/mL of a β-lactamase inhibitor)	> 7.00	
O=C(O)c1cccc2c1OB(O)[C@@H](NC(=O)C(Cl)CC(F)F)C2 (stereo partly drawn) [Example 5, (R)-3-(2-Chloro-4,4-difluoro-butyrylamino)-2-hydroxy-3,4-dihydro-2H-benzo[e][1,2]oxaborinine-8-carboxylic acid]	> 7.00	B (B represents the MIC in the presence of between 8 and 32 g/mL of a β-lactamase inhibitor)	C (C represents the MIC in the presence of ≤4 g/mL of a β-lactamase inhibitor)	> 7.00	5.00 to 6.00	> 7.00	C (C represents the MIC in the presence of ≤4 g/mL of a β-lactamase inhibitor)	A (A represents an MIC of the fixed β-lactam antibiotic in the presence of >32 g/mL of a β-lactamase inhibitor)	C (C represents the MIC in the presence of ≤4 g/mL of a β-lactamase inhibitor)	C (C represents the MIC in the presence of ≤4 g/mL of a β-lactamase inhibitor)	> 7.00	
O=C(CC(F)(F)F)N[C@H]1Cc2cccc(C(=O)O)c2OB1O [Example 4, (R)-2-Hydroxy-3-(3,3,3-trifluoro-propionylamino)-3,4-dihydro-2H-benzo[e][1,2]oxaborinine-8-carboxylic acid]	> 7.00	B (B represents the MIC in the presence of between 8 and 32 g/mL of a β-lactamase inhibitor)	C (C represents the MIC in the presence of ≤4 g/mL of a β-lactamase inhibitor)	> 7.00	5.00 to 6.00	6.00 to 7.00	C (C represents the MIC in the presence of ≤4 g/mL of a β-lactamase inhibitor)	C (C represents the MIC in the presence of ≤4 g/mL of a β-lactamase inhibitor)	C (C represents the MIC in the presence of ≤4 g/mL of a β-lactamase inhibitor)	C (C represents the MIC in the presence of ≤4 g/mL of a β-lactamase inhibitor)	> 7.00	
COCCC(=O)N[C@H]1Cc2cccc(C(=O)O)c2OB1O [Example 26, (R)-2-Hydroxy-3-(3-methoxy-propionylamino)-3,4-dihydro-2H-benzo[e][1,2]oxaborinine-8-carboxylic acid]	6.00 to 7.00	B (B represents the MIC in the presence of between 8 and 32 g/mL of a β-lactamase inhibitor)	C (C represents the MIC in the presence of ≤4 g/mL of a β-lactamase inhibitor)	> 7.00	5.00 to 6.00	> 7.00	C (C represents the MIC in the presence of ≤4 g/mL of a β-lactamase inhibitor)	B (B represents the MIC in the presence of between 8 and 32 g/mL of a β-lactamase inhibitor)	C (C represents the MIC in the presence of ≤4 g/mL of a β-lactamase inhibitor)	C (C represents the MIC in the presence of ≤4 g/mL of a β-lactamase inhibitor)	> 7.00	
CC(O)(O)C(=O)N[C@H]1Cc2cccc(C(=O)O)c2OB1O [Example 3, (R)-3-(2,2-Dihydroxy-propionylamino)-2-hydroxy-3,4-dihydro-2H-benzo[e][1,2]oxaborinine-8-carboxylic acid]	6.00 to 7.00	A (A represents an MIC of the fixed β-lactam antibiotic in the presence of >32 g/mL of a β-lactamase inhibitor)	C (C represents the MIC in the presence of ≤4 g/mL of a β-lactamase inhibitor)	> 7.00	5.00 to 6.00	6.00 to 7.00	C (C represents the MIC in the presence of ≤4 g/mL of a β-lactamase inhibitor)	C (C represents the MIC in the presence of ≤4 g/mL of a β-lactamase inhibitor)	C (C represents the MIC in the presence of ≤4 g/mL of a β-lactamase inhibitor)	C (C represents the MIC in the presence of ≤4 g/mL of a β-lactamase inhibitor)	> 7.00	
N#CCCC(=O)N[C@H]1Cc2cccc(C(=O)O)c2OB1O [Example 8, (R)-3-(3-Cyano-propionylamino)-2-hydroxy-3,4-dihydro-2H-benzo[e][1,2]oxaborinine-8-carboxylic acid]	> 7.00	C (C represents the MIC in the presence of ≤4 g/mL of a β-lactamase inhibitor)	C (C represents the MIC in the presence of ≤4 g/mL of a β-lactamase inhibitor)	> 7.00	6.00 to 7.00		C (C represents the MIC in the presence of ≤4 g/mL of a β-lactamase inhibitor)	C (C represents the MIC in the presence of ≤4 g/mL of a β-lactamase inhibitor)	C (C represents the MIC in the presence of ≤4 g/mL of a β-lactamase inhibitor)	C (C represents the MIC in the presence of ≤4 g/mL of a β-lactamase inhibitor)	> 7.00	> 7.00

From patent US11008346B2, “Beta-lactamase inhibitors” (priority 2014, dated 2021)
